Measured values taken from patent US10023590B2, “Substituted pyridine compounds having herbicidal activity” (BASF SE, priority 2014, dated 2018).

What was measured:
Type in all cases: in vivo
Amaranthus retroflexus = test: Greenhouse post-emergence herbicidal activity, AMARE; settings: AMARE; for pest or weed control at 250 g/ha: 0.25 kg/ha
Text: (§1) The culture containers used were plastic flowerpots containing loamy sand with approximately 3.0% of humus as the substrate. The seeds of the test plants were sown separately for each species.
(§2) For the post-emergence treatment, the test plants were first grown to a height of 3 to 15 cm, depending on the plant habit, and only then treated with the active ingredients which had been suspended or emulsified in water. For this purpose, the test plants were either sown directly and grown in the same containers, or they were first grown separately as seedlings and transplanted into the test containers a few days prior to treatment.
(§3) Depending on the species, the plants were kept at 10-25° C. or 20-35° C., respectively.
(§4) The test period extended over 2 to 4 weeks. During this time, the plants were tended, and their response to the individual treatments was evaluated.
(§5) Evaluation was carried out using a scale from 0 to 100. 100 means no emergence of the plants, or complete destruction of at least the aerial moieties, and 0 means no damage, or normal course of growth. A good herbicidal activity is given at values of at least 70 and a very good herbicidal activity is given at values of at least 85.

Chenopodium album = test: Greenhouse post-emergence herbicidal activity, CHEAL; settings: for pest or weed control at 250 g/ha: 0.25 kg/ha
Text: as §1, §2, §3, §4, §5

Echinocloa crus-galli = test: Greenhouse post-emergence herbicidal activity, ECHCG; settings: Echinochloa crus-galli, ECHCG; for pest or weed control at 250 g/ha: 0.25 kg/ha
Text: as §1, §2, §3, §4, §5

Oryza sativa = test: Greenhouse post-emergence herbicidal activity on crop ORYSA (rice)
Text: as §1, §2, §3, §4, §5

Zea mays = test: Greenhouse post-emergence herbicidal activity on crop ZEAMX (corn, maize); parameters: key: 0 = no damage/normal growth, 100 = no emergence or complete destruction
Text: as §1, §2, §3, §4, §5

[1] = crop ORYSA (rice), application rate 0.031 kg/ha
[2] = crop ORYSA (rice), application rate 0.063 kg/ha
[3] = crop ORYSA (rice), application rate 0.125 kg/ha
[4] = crop ZEAMX (corn, maize), application rate 0.031 kg/ha
[5] = crop ZEAMX (corn, maize), application rate 0.063 kg/ha
[6] = crop ZEAMX (corn, maize), application rate 0.125 kg/ha
[7] = ORYSA (rice, crop), 0.125 kg/ha, scale 0 to 100
[8] = ZEAMX (corn, crop), 0.125 kg/ha, scale 0 to 100
[9] = ORYSA (rice, crop), 0.031 kg/ha, scale 0 to 100
[10] = ORYSA (rice, crop), 0.063 kg/ha, scale 0 to 100
[11] = ZEAMX (corn, crop), 0.031 kg/ha, scale 0 to 100
[12] = ZEAMX (corn, crop), 0.063 kg/ha, scale 0 to 100
[13] = ZEAMX (corn, crop), 0.25 kg/ha, scale 0 to 100

SMILES	pest or weed control at 31 g/ha (Chenopodium album; application rate 0.031 kg/ha)	pest or weed control at 63 g/ha (Chenopodium album; application rate 0.063 kg/ha)	pest or weed control at 125 g/ha (Chenopodium album; application rate 0.125 kg/ha)	Herbicidal activity (Oryza sativa; [1])	Herbicidal activity (Oryza sativa; [2])	Herbicidal activity (Oryza sativa; [3])	Herbicidal activity (Zea mays; [4])	Herbicidal activity (Zea mays; [5])	pest or weed control at 125 g/ha (Amaranthus retroflexus; 0.125 kg/ha, scale 0 to 100)	pest or weed control at 250 g/ha (Amaranthus retroflexus; scale 0 to 100)	pest or weed control at 125 g/ha (Chenopodium album; 0.125 kg/ha, scale 0 to 100)	pest or weed control at 250 g/ha (Chenopodium album; scale 0 to 100)	pest or weed control at 125 g/ha (Echinocloa crus-galli; 0.125 kg/ha, scale 0 to 100)	Herbicidal activity (Zea mays; [8])	pest or weed control at 31 g/ha (Amaranthus retroflexus; 0.031 kg/ha, scale 0 to 100)	pest or weed control at 63 g/ha (Amaranthus retroflexus; 0.063 kg/ha, scale 0 to 100)	pest or weed control at 31 g/ha (Chenopodium album; 0.031 kg/ha, scale 0 to 100)	pest or weed control at 63 g/ha (Chenopodium album; 0.063 kg/ha, scale 0 to 100)	pest or weed control at 31 g/ha (Echinocloa crus-galli; 0.031 kg/ha, scale 0 to 100)	pest or weed control at 63 g/ha (Echinocloa crus-galli; 0.063 kg/ha, scale 0 to 100)	other results
CN(c1cccc(C2=C(O)c3ncccc3C(C)(C)S2(=O)=O)c1S(C)(=O)=O)S(C)(=O)=O [I-34, N-[3-(8-hydroxy-5,5-dimethyl-6,6-dioxo-thiopyrano[4,3-b]pyridin-7-yl)-2-methylsulfonyl-phenyl]-N-methyl-methanesulfonamide]	95%	98%	100%	0	0	0	0	0	–	–	–	–	–	–	–	–	–	–	–	–	pest or weed control at 31 g/ha (Amaranthus retroflexus; application rate 0.031 kg/ha): 90%; pest or weed control at 63 g/ha (Amaranthus retroflexus; application rate 0.063 kg/ha): 95%; pest or weed control at 125 g/ha (Amaranthus retroflexus; application rate 0.125 kg/ha): 98%; pest or weed control at 125 g/ha (Echinocloa crus-galli; application rate 0.125 kg/ha): 70%; Herbicidal activity (Zea mays; [6]): 15
CN(c1cccc(C2=C(O)c3ncccc3CS2(=O)=O)c1S(C)(=O)=O)S(C)(=O)=O [I-33, N-[3-(8-hydroxy-6,6-dioxo-5H-thiopyrano[4,3-b]pyridin-7-yl)-2-methylsulfonyl-phenyl]-N-methyl-methanesulfonamide]	85%	98%	90%	0	20	10	0	0	–	–	–	–	–	–	–	–	–	–	–	–	pest or weed control at 63 g/ha (Amaranthus retroflexus; application rate 0.063 kg/ha): 85%; pest or weed control at 125 g/ha (Amaranthus retroflexus; application rate 0.125 kg/ha): 90%; Herbicidal activity (Zea mays; [6]): 0
CS(=O)(=O)Nc1c(Cl)ccc(C2=C(O)c3ncccc3CS2(=O)=O)c1Cl [I-1, N-[2,6-dichloro-3-(8-hydroxy-6,6-dioxo-5H-thiopyrano[4,3-b]pyridin-7-yl)phenyl]methanesulfonamide]	–	–	–	–	–	–	–	–	75%	80%	80%	95%	70%	0	–	–	–	–	–	–	pest or weed control at 250 g/ha (Echinocloa crus-galli; scale 0 to 100): 80%; Herbicidal activity (Oryza sativa; [7]): 0; Herbicidal activity (Oryza sativa; ORYSA (rice, crop), 0.25 kg/ha, scale 0 to 100): 0
CN(c1c(Cl)ccc(C2=C(O)c3ncc(F)cc3CS2(=O)=O)c1Cl)S(C)(=O)=O [I-37, N-[2,6-dichloro-3-(3-fluoro-8-hydroxy-6,6-dioxo-5H-thiopyrano[4,3-b]pyridin-7-yl)phenyl]-N-methyl-methanesulfonamide]	90%	90%	90%	0	0	0	0	0	–	–	–	–	–	–	–	–	–	–	–	–	pest or weed control at 31 g/ha (Echinocloa crus-galli; application rate 0.031 kg/ha): 90%; pest or weed control at 63 g/ha (Echinocloa crus-galli; application rate 0.063 kg/ha): 90%; pest or weed control at 125 g/ha (Echinocloa crus-galli; application rate 0.125 kg/ha): 95%
CN(c1cccc(C2=C(O)c3ncccc3CS2(=O)=O)c1Cl)S(C)(=O)=O [I-15, N-[2-chloro-3-(8-hydroxy-6,6-dioxo-5H-thiopyrano[4,3-b]pyridin-7-yl)phenyl]-N-methyl-methanesulfonamide]	–	–	–	–	–	–	–	–	90%	–	98%	–	98%	35	75%	85%	90%	98%	85%	90%	Herbicidal activity (Oryza sativa; [9]): 0; Herbicidal activity (Oryza sativa; [10]): 0; Herbicidal activity (Oryza sativa; [7]): 20
CN(c1c(Cl)ccc(C2=C(O)c3ncccc3CS2(=O)=O)c1Cl)S(=O)(=O)CC1CC1 [I-20, 1-cyclopropyl-N-[2,6-dichloro-3-(8-hydroxy-6,6-dioxo-5H-thiopyrano[4,3-b]pyridin-7-yl)phenyl]-N-methyl-methanesulfonamide]	–	–	–	–	–	–	–	–	100%	–	100%	–	100%	0	90%	90%	100%	100%	100%	100%	Herbicidal activity (Zea mays; [11]): 0; Herbicidal activity (Zea mays; [12]): 0
CN(c1ccc(Cl)c(C2=C(O)c3ncccc3CS2(=O)=O)c1Cl)S(C)(=O)=O [I-4, N-[2,4-dichloro-3-(8-hydroxy-6,6-dioxo-5H-thiopyrano[4,3-b]pyridin-7-yl)phenyl]-N-methyl-methanesulfonamide]	–	–	–	–	–	–	–	–	98%	98%	100%	100%	98%	55	90%	90%	85%	95%	98%	90%	pest or weed control at 250 g/ha (Echinocloa crus-galli; scale 0 to 100): 100%; Herbicidal activity (Oryza sativa; [9]): 25; Herbicidal activity (Oryza sativa; [10]): 35; Herbicidal activity (Oryza sativa; [7]): 50; Herbicidal activity (Zea mays; [11]): 0; Herbicidal activity (Zea mays; [12]): 20
CS(=O)(=O)N(c1c(Cl)ccc(C2=C(O)c3ncccc3CS2(=O)=O)c1Cl)C1CC1 [I-24, N-cyclopropyl-N-[2,6-dichloro-3-(8-hydroxy-6,6-dioxo-5H-thiopyrano[4,3-b]pyridin-7-yl)phenyl]methanesulfonamide]	–	–	–	–	–	–	–	–	85%	90%	90%	98%	90%	15	70%	75%	80%	85%	80%	85%	pest or weed control at 250 g/ha (Echinocloa crus-galli; scale 0 to 100): 95%; Herbicidal activity (Oryza sativa; [9]): 0; Herbicidal activity (Oryza sativa; [10]): 15; Herbicidal activity (Oryza sativa; [7]): 20; Herbicidal activity (Zea mays; [11]): 0; Herbicidal activity (Zea mays; [12]): 0; Herbicidal activity (Zea mays; [13]): 15
CN(c1cccc(C2=C(O)c3ncccc3C(C)(C)S2(=O)=O)c1C(F)(F)F)S(C)(=O)=O [I-36, N-[3-(8-hydroxy-5,5-dimethyl-6,6-dioxo-thiopyrano[4,3-b]pyridin-7-yl)-2-(trifluoromethyl)phenyl]-N-methyl-methanesulfonamide]	100%	100%	100%	30	40	45	0	0	–	–	–	–	–	–	–	–	–	–	–	–	pest or weed control at 31 g/ha (Amaranthus retroflexus; application rate 0.031 kg/ha): 90%; pest or weed control at 63 g/ha (Amaranthus retroflexus; application rate 0.063 kg/ha): 95%; pest or weed control at 125 g/ha (Amaranthus retroflexus; application rate 0.125 kg/ha): 98%; pest or weed control at 31 g/ha (Echinocloa crus-galli; application rate 0.031 kg/ha): 70%; pest or weed control at 63 g/ha (Echinocloa crus-galli; application rate 0.063 kg/ha): 90%; pest or weed control at 125 g/ha (Echinocloa crus-galli; application rate 0.125 kg/ha): 95%; Herbicidal activity (Zea mays; [6]): 0
CCS(=O)(=O)N(C)c1c(Cl)ccc(C2=C(O)c3ncccc3CS2(=O)=O)c1Cl [I-18, N-[2,6-dichloro-3-(8-hydroxy-6,6-dioxo-5H-thiopyrano[4,3-b]pyridin-7-yl)phenyl]-N-methyl-ethanesulfonamide]	–	–	–	–	–	–	–	–	100%	100%	100%	100%	100%	25	100%	100%	100%	100%	98%	100%	pest or weed control at 250 g/ha (Echinocloa crus-galli; scale 0 to 100): 100%; Herbicidal activity (Oryza sativa; [9]): 30; Herbicidal activity (Zea mays; [11]): 0; Herbicidal activity (Zea mays; [12]): 25; Herbicidal activity (Zea mays; [13]): 35
